In the NIST ThermoML archive (doi:10.1021/acs.jced.5b00894):
± gives the expanded uncertainty stated by the source.

Details: 88 kPa, Liquid, Vibrating tube method

CCCCn1cc[n+](C)c1.F[B-](F)(F)F [1-butyl-3-methylimidazolium tetrafluoroborate]
mass density (298.15 K): 1202.71 ± 4.2 kg/m3 | mass density (313.15 K): 1192.29 ± 4.2 kg/m3 | mass density (333.15 K): 1178.73 ± 4.2 kg/m3

CCCCCCn1cc[n+](C)c1.N#C[S-] [1-hexyl-3-methylimidazolium thiocyanate]
mass density (298.15 K): 1036.21 ± 4.1 kg/m3 | mass density (313.15 K): 1027.55 ± 4.1 kg/m3 | mass density (333.15 K): 1016.12 ± 4.1 kg/m3

CCCCCCCCn1cc[n+](C)c1.O=[N+]([O-])[O-] [1-methyl-3-octylimidazolium nitrate]
mass density (298.15 K): 1063.86 ± 4.1 kg/m3 | mass density (313.15 K): 1054.55 ± 4.1 kg/m3 | mass density (333.15 K): 1042.42 ± 4.1 kg/m3
